Experimental data taken from article PMC4662070 (Nature communications, 2015).

Target: FABP5 (Homo sapiens, UniProt Q01469)
Assay: fluorescence titration
Type: binding

Sequence of FABP5 (Q01469 2-135): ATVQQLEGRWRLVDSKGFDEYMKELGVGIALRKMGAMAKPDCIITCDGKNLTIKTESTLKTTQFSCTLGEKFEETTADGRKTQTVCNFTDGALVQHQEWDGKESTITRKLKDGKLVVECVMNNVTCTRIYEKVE

Structure (SMILES): O=S(=O)(O)c1cccc2cccc(Nc3ccccc3)c12 [ANS, 1-anilinonaphthalene-8-sulfonic acid]
- Kd: 70 ± 6.4 nM
